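Five compound concentrations were applied to cells in 96-well plates for 48 hours; endpoints were derived by simple linear interpolation of the resulting dose-response curve. GI50: concentration for 50% inhibition of growth.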 The source made the active and inactive calls. No stated cut-off is given here; in the data, active = GI50 up to about 1.1 µM and inactive = higher.
How the values were obtained:
Assay in all cases: growth of human tumour cells (NCI), 48 h
[1] = tested on: Malme-3M
[2] = tested on: HCC 2998
[3] = tested on: NCI-H23
[4] = tested on: OVCAR-5
[5] = tested on: Hs-578T
[6] = tested on: ACHN
[7] = tested on: NCI/ADR-RES
[8] = tested on: MDA-MB-435
[9] = tested on: SF-539
[10] = tested on: A498
[11] = tested on: MCF7
[12] = tested on: SW-620
[13] = tested on: HOP-62
[14] = tested on: PC-3
[15] = tested on: SF-268
[16] = tested on: CAKI-1
[17] = tested on: K562
[18] = tested on: SNB-75
[19] = tested on: SR

SMILES | GI50 [1] | GI50 [2] | GI50 [3] | GI50 [4] | GI50 [5] | GI50 [6] | GI50 [7] | GI50 [8] | GI50 [9] | GI50 [10] | GI50 [11] | GI50 [12] | GI50 [13] | GI50 [14] | GI50 [15] | GI50 [16] | GI50 [17] | GI50 [18] | GI50 [19]
O=C(O)CCSc1ncnc2[nH]cnc12 | > 100 µM (inactive) | > 100 µM (inactive) | > 100 µM (inactive) | > 100 µM (inactive) | > 100 µM (inactive) | > 100 µM (inactive) | > 100 µM (inactive) | > 100 µM (inactive) | > 100 µM (inactive) | > 100 µM (inactive) | > 100 µM (inactive) | > 100 µM (inactive) | > 100 µM (inactive) | > 100 µM (inactive) | > 100 µM (inactive) | > 100 µM (inactive) | > 100 µM (inactive) |  | 
CN1C(=S)C(c2ccccc2)Sc2ccccc21 (stereo unspecified) | 97.7 µM (inactive) |  | 55.7 µM (inactive) | 82 µM (inactive) | 35.6 µM (inactive) | > 100 µM (inactive) | > 100 µM (inactive) | 57 µM (inactive) |  |  | 48.8 µM (inactive) |  | > 100 µM (inactive) | 17.6 µM (inactive) | > 100 µM (inactive) | > 100 µM (inactive) | 20.7 µM (inactive) | 35.7 µM (inactive) | 64.4 µM (inactive)
O=C(O)C1C2C=CC(O2)C1C(=O)Nc1ncccn1 (stereo unspecified) | > 100 µM (inactive) |  | > 100 µM (inactive) | > 100 µM (inactive) | > 100 µM (inactive) | > 100 µM (inactive) | > 100 µM (inactive) | > 100 µM (inactive) | > 100 µM (inactive) | > 100 µM (inactive) | > 100 µM (inactive) | > 100 µM (inactive) | > 100 µM (inactive) | > 100 µM (inactive) | > 100 µM (inactive) | > 100 µM (inactive) | 97.9 µM (inactive) | > 100 µM (inactive) | > 100 µM (inactive)
NC(CC1=CS(=O)(=O)c2ccc(Cl)cc21)C(=O)O (stereo unspecified) | 76.7 µM (inactive) |  | > 100 µM (inactive) | > 100 µM (inactive) | 70.5 µM (inactive) | > 100 µM (inactive) | > 100 µM (inactive) | > 100 µM (inactive) | > 100 µM (inactive) | > 100 µM (inactive) | 92.3 µM (inactive) | > 100 µM (inactive) | > 100 µM (inactive) | > 100 µM (inactive) | > 100 µM (inactive) | > 100 µM (inactive) | > 100 µM (inactive) | 20.6 µM (inactive) | > 100 µM (inactive)
NCCN1C(=O)c2cc(Cl)c(Cl)cc2C1(O)c1ccc(Cl)cc1 (stereo unspecified) | 1.71 µM (inactive) |  | 2.69 µM (inactive) | 3.33 µM (inactive) | 2.74 µM (inactive) | 2.19 µM (inactive) | 2.42 µM (inactive) | 1.68 µM (inactive) | 1.7 µM (inactive) | 2.92 µM (inactive) | 1.83 µM (inactive) | 1.9 µM (inactive) | 1.85 µM (inactive) | 4.98 µM (inactive) | 2.32 µM (inactive) | 2.54 µM (inactive) | 1.91 µM (inactive) | 2.28 µM (inactive) | 2.02 µM (inactive)
COc1ccc(N2C(=O)CC(Cl)C2=O)cc1 (stereo unspecified) | 17.5 µM (inactive) | 20.4 µM (inactive) | 23.3 µM (inactive) | 18.2 µM (inactive) | > 100 µM (inactive) | 17.9 µM (inactive) | 32.4 µM (inactive) | > 100 µM (inactive) | 18.2 µM (inactive) | > 100 µM (inactive) | 60.1 µM (inactive) | 18.7 µM (inactive) | > 100 µM (inactive) | 52.2 µM (inactive) | > 100 µM (inactive) |  | 6.05 µM (inactive) | > 100 µM (inactive) | 
O=C(O)c1ccc(N/C(=C(/C(Cl)=C(Cl)Cl)[N+](=O)[O-])n2nnc3ccccc32)cc1 | > 100 µM (inactive) | > 100 µM (inactive) | > 100 µM (inactive) | > 100 µM (inactive) | > 100 µM (inactive) | > 100 µM (inactive) | > 100 µM (inactive) | > 100 µM (inactive) | > 100 µM (inactive) | > 100 µM (inactive) | > 100 µM (inactive) | > 100 µM (inactive) | > 100 µM (inactive) | > 100 µM (inactive) | > 100 µM (inactive) | > 100 µM (inactive) | > 100 µM (inactive) |  | 
Clc1nc2n(c1/C=C/c1cccs1)CCS2 | 90.8 µM (inactive) | 35.5 µM (inactive) | 29 µM (inactive) | 27.3 µM (inactive) | 30.1 µM (inactive) | 37.5 µM (inactive) | 29.6 µM (inactive) | 31.1 µM (inactive) |  | 20 µM (inactive) | 30.8 µM (inactive) | 26.9 µM (inactive) | 53.7 µM (inactive) | 40.8 µM (inactive) | 40.4 µM (inactive) | 18.8 µM (inactive) | 47.2 µM (inactive) | 55 µM (inactive) | 
COc1cc2c(cc1OC)[C@@H]1[C@H](C#N)C(=O)C(C)(C)N1CC2 | > 100 µM (inactive) | > 100 µM (inactive) | > 100 µM (inactive) | > 100 µM (inactive) | > 100 µM (inactive) | > 100 µM (inactive) | > 100 µM (inactive) | > 100 µM (inactive) |  | > 100 µM (inactive) | > 100 µM (inactive) | > 100 µM (inactive) |  | > 100 µM (inactive) |  | > 100 µM (inactive) | > 100 µM (inactive) |  | > 100 µM (inactive)
Nc1ccc(C(=O)O)cc1.Nc1nc(N)c2nc[nH]c2n1 | 69.2 µM (inactive) |  | 23.5 µM (inactive) | 17.1 µM (inactive) | > 100 µM (inactive) | 17 µM (inactive) | 38.5 µM (inactive) | 12.2 µM (inactive) | > 100 µM (inactive) | 13.6 µM (inactive) | 3.97 µM (inactive) | 25.7 µM (inactive) | 20.7 µM (inactive) | 22.3 µM (inactive) | 60.8 µM (inactive) | 13.6 µM (inactive) | 20 µM (inactive) | 2.44 µM (inactive) | 33.2 µM (inactive)
CC[C@@H]1CN2CCC1C[C@@H]2C(O)c1ccnc2ccc(OCCN3CCN(CCOc4ccc5nccc(C(O)[C@@H]6C[C@@H]7CCN6C[C@@H]7CC)c5c4)CC3)cc12 (stereo partly specified) | 24.8 µM (inactive) | 9.48 µM (inactive) | 20.7 µM (inactive) | 18.6 µM (inactive) | 15.3 µM (inactive) | 15.1 µM (inactive) | > 100 µM (inactive) | 13.8 µM (inactive) | 13.8 µM (inactive) | 20.2 µM (inactive) | 15.5 µM (inactive) | 21.8 µM (inactive) | 18.5 µM (inactive) | 15.9 µM (inactive) | 18.4 µM (inactive) | 17.9 µM (inactive) | 2.63 µM (inactive) |  | 
CC1(C)CC(=O)C(CCC(=O)/C=C/c2ccccc2)C(=O)C1 | > 100 µM (inactive) | > 100 µM (inactive) | > 100 µM (inactive) | > 100 µM (inactive) | > 100 µM (inactive) | 98.9 µM (inactive) | > 100 µM (inactive) | > 100 µM (inactive) | > 100 µM (inactive) | > 100 µM (inactive) | > 100 µM (inactive) | > 100 µM (inactive) | > 100 µM (inactive) | > 100 µM (inactive) | > 100 µM (inactive) | > 100 µM (inactive) | > 100 µM (inactive) | > 100 µM (inactive) | 
CCN(CC)C(=O)CCCCCCCCC1CO1 (stereo unspecified) | 81.3 µM (inactive) |  | > 100 µM (inactive) | > 100 µM (inactive) | > 100 µM (inactive) | > 100 µM (inactive) | > 100 µM (inactive) | > 100 µM (inactive) | > 100 µM (inactive) | > 100 µM (inactive) | > 100 µM (inactive) | > 100 µM (inactive) | > 100 µM (inactive) | > 100 µM (inactive) | > 100 µM (inactive) | > 100 µM (inactive) | > 100 µM (inactive) | > 100 µM (inactive) | > 100 µM (inactive)
CC(C)[C@H]1NC(=O)[C@H]2N=C(O[C@@H]2C)[C@@H]2CCCN2C(=O)[C@H](Cc2ccccc2)NC(=O)[C@@H]2COC(=N2)[C@@H](Cc2ccccc2)NC(=O)[C@@H]2COC1=N2 | > 100 µM (inactive) | > 100 µM (inactive) | > 100 µM (inactive) | > 100 µM (inactive) | > 100 µM (inactive) | > 100 µM (inactive) | > 100 µM (inactive) | > 100 µM (inactive) | > 100 µM (inactive) |  | > 100 µM (inactive) | > 100 µM (inactive) | > 100 µM (inactive) | > 100 µM (inactive) | > 100 µM (inactive) | > 100 µM (inactive) | > 100 µM (inactive) | 0.428 µM (active) | 
O=[N+]([O-])C(=C1NCCN1)/C(Cl)=C(/Cl)N1CCOCC1 | > 100 µM (inactive) | > 100 µM (inactive) | > 100 µM (inactive) | > 100 µM (inactive) | > 100 µM (inactive) | > 100 µM (inactive) | > 100 µM (inactive) | > 100 µM (inactive) | > 100 µM (inactive) | > 100 µM (inactive) | > 100 µM (inactive) | > 100 µM (inactive) | > 100 µM (inactive) | > 100 µM (inactive) | > 100 µM (inactive) | > 100 µM (inactive) | > 100 µM (inactive) | > 100 µM (inactive) | 
Cc1ccc(S(=O)(=O)OC2=C/C(=N\c3onc(C)c3C)c3ccccc3C2=O)cc1 | 17.9 µM (inactive) |  | 22.6 µM (inactive) | 20.3 µM (inactive) | 38.5 µM (inactive) | 26.3 µM (inactive) | 25.2 µM (inactive) | 16.1 µM (inactive) | 31.8 µM (inactive) | > 100 µM (inactive) | 17.3 µM (inactive) | 28.2 µM (inactive) | 23.6 µM (inactive) | 20.6 µM (inactive) | 23.7 µM (inactive) | 20 µM (inactive) | 4.41 µM (inactive) | 45.7 µM (inactive) | 3.01 µM (inactive)

Source: ChEMBL document CHEMBL1201862, “PubChem BioAssay data set” (2004)
